The text below walks through data of US9527817B2, “Compounds for treating peripheral; neuropathies and other neurodegenerative; disorders” (THE JOHNS HOPKINS UNIVERSITY, priority 2011, dated 2016).

The target in one test is recombinant hsp90. Nature of the test: Fluorescence quenching binding assay. The conditions noted are these: 25° C. The method, then: For the fluorescence-quenching assay, fluorescence intensity was recorded on a SpectraMax Gemini XS plate reader (Molecular Devices, Palo Alto, Calif.) using a 96-well black PCR plate (Thermo Scientific, Logan, Utah). Compounds (10 mM in ethanol) were diluted with 50 mM Tris-HCl (pH 7.4) to obtain a solution with a 15 μM final concentration. Aliquots of proteins were added to the compounds solution and mixed with micro pipette by gently pulling in and drawing out the solution. Fluorescence intensities (λex=350 nm, λem=450 nm) were measured at 25° C. Equilibrium dissociation constant KD was obtained by fitting the data using the nonlinear least squares option of the GraphPad Prism software. All experiments were completed in duplicates and repeated at least three times.
To determine the binding efficiency, fluorescence quenching experiments were carried out with recombinant hsp90.

The subject of test [1] is four different human breast cancer cell lines: MCE-7, SUM-159, TATD, and MDA-MB-231. Nature of the test: Antineoplastic activity of paclitaxel with or without EQ (cellular ATP levels). In kind it is cell-based. To be noted: paclitaxel co-administered with varying concentrations of EQ. The method, then:
To determine the effect of EQ on the antineoplastic activity of paclitaxel, the conditions for culturing four cancer cell lines and measuring the ATP levels were optimized for the 96-well plate format. Briefly, 1500 cells/well in media (MDA-MB-231 in DMEM with 10% FBS; MCF-7 in DMEM with 10% FBS; TATD in RPMI with 10% FBS; SUM159 in DMEM/F-12 (250 mL/250 mL) with 5% FBS, 500 μL of 10 mg/mL insulin and 25 μL of 10 mg/mL hydrocordisol) were plated in 96-well plates for 24 h. Constant concentrations of paclitaxel (PTX) with or without EQ were added to the wells for another 24 h. Cellular ATP levels were measured using ViaLight Plus kit (Cambrex) according to the manufacturer's protocol on a LMaxI microplate reader (Molecular Devices, Palo Alto, Calif.).

The subject of a further test is AJ mice treated with PTX. The test can be described thus: Mouse model of chemotherapy induced peripheral neuropathy (paclitaxel). In kind it is in vivo. To be noted: various doses daily, PTX 25 mg/kg i.v. days 1, 3, 5. The method, then: In this model, animals develop thermal hypoalgesia and reduction in sensory nerve action potential (SNAP) amplitudes. AJ mice were given three doses of PTX at 25 mg/kg intravenously every other day (days 1, 3 and 5). Vehicle control or EQ was administered daily starting on day 1 and tissues were harvested at day 19. Immediately before tissue harvest, sensory nerve conduction studies and thermal sensation measurements were carried out.

Test [2] relates to hsp90. Nature of the test: Neuroprotection by EQ with hsp90 siRNA or control siRNA. Type of test: cell-based, rat. On the procedure:
For the RNA inhibition experiments, transfection with siRNA was carried out according to the manufacturer's protocol. 50B11 cells were plated in 6-well plates in culture medium (Neurobasal medium, 10% fetal bovine serum (FBS), 0.5 mM glutamine, 1×B-27 supplement, 0.2% glucose) without antibiotics overnight and allowed to reach 50-70% confluence. On the second day, 1 μL siRNA oligomer (Ambion, Life Technologies, Carlsbad, Calif.) was diluted in 250 μL Opti-MEM media, and 5 μL Lipofectation 2000 (Invitrogen, Life Technologies, Carlsbad, Calif.) in another 250 μL Opti-MEM media. After 5 minutes incubation, dilutions were combined and incubated for 20 minutes at RT and then the oligomer-Lipofectation 2000 complexes were added to each well. […]
The protein isolation, protein electrophoresis (SDS-PAGE) and Western blotting assays were performed according to the instructions of the manufacturer. […] The measurements of total protein concentrations were performed using BCA kits (Thermo Scientific, Logan, Utah) on SpectraMax 340PC microplate reader (Molecular Devices, Palo Alto, Calif.). Samples (30 μg of total protein per well) and standards (SeeBlue® Plus2 Pre-Stained Standard, Invitrogen, Life Technologies, Carlsbad, Calif.) were loaded onto the wells (Ready Gel® 4-15% Tris-HCl, 50 μL^−1 gel; Bio-Rad, Hercules, Calif.). […]

The subject of test [3] is hsp90. Nature of the test: Binding efficacy of paclitaxel to hsp90 in the presence of EQ. On the procedure: Further, it was known that paclitaxel binds to hsp90. To determine if EQ was binding to the same site and displacing paclitaxel, the binding efficacy of paclitaxel to hsp90 was measured. […] It is possible that EQ binds to hsp90 and modifies its chaperone activity for an important client protein.

In test [4] the test system is mouse model of HIV-associated sensory neuropathy. The test can be described thus: Mouse model of HIV-associated sensory neuropathy. In kind it is in vivo. To be noted: 75 μg/kg/day; data not shown.
A further test concerns diabetic rats. The test can be described thus: Diabetic rats: distal axonal degeneration and autonomic testing. In kind it is in vivo, rat. The conditions noted are these: data not shown.
A further test relates to primary DRG neurons. The test can be described thus: Axon length assay, paclitaxel-induced distal axonal degeneration. In kind it is cell-based, rat. The conditions noted are these: 24 hours exposure, βIII-tubulin staining. The method, then: Measurements of axonal lengths to determine axonal degeneration induced by EQ and representative derivatives were done as described in Keswani et al., “FK506 is neuroprotective in a model of antiretroviral toxic neuropathy,” Annals of Neurology, 53(1):57-64 (2003). Initially, dorsal root ganglia (DRG) cells were harvested from embryonic rats (14.5 days old) according to standard protocol, then cells were plated onto collagen-coated glass coverslips and allowed to extend axons for 24 h in media (Neurobasal medium, 50 mM PS, 0.2% fetal bovine serum (FBS), 0.5 mM glutamine, 1×B-27 supplement, 0.2% glucose, 10 ng/mL glial cell line-derived neurotrophic factor (GDNF)). Paclitaxel (PTX), EQ and representative derivatives, or vehicle controls were added to the wells for another 24 h incubation. DRG cells were fixed with 4% paraformaldehyde and stained with anti-βIII-tubulin antibody to delineate the axons. Axon lengths were measured in multiple fields using a random sampling method as described by Keswani et al., 2003. All experiments were performed in triplicates and repeated twice. Statistical analysis was done using the ANOVA procedure. Correction for multiple comparisons was completed with Fisher's protected least significant difference. Bars marked with * indicate statistically significant differences with p<0.05.

Test [5] concerns hsp90. The test can be described thus: Colorimetric (malachite green) determination of hsp90 ATPase activity. Type of test: biochemical. To be noted: wide dose range of EQ. The method, then:
The assay procedure for the colorimetric determination of ATPase activity was based on Rowlands et al., “High-throughput Screening Assay for Inhibitors of Heat-Shock Protein 90 ATPase Activity,” Analytical Biochemistry 327:176-183 (2004). The malachite green reagent was prepared on the day of use. It contained malachite green (Sigma Aldrich, St. Louis, Mo.; 0.0812%, w/v), polyvinyl alcohol (Sigma Aldrich, St. Louis, Mo.; 2.32%, w/v), ammonium molybdate (Sigma Aldrich, St. Louis, Mo.; 5.72%, w/v, in 6 M HCl), and UltraPure Distilled Water (Invitrogen, Life Technologies, Carlsbad, Calif.), mixed in the ratio 2:1:1:2. The reagent was initially dark brown, and then it changed to a golden yellow after 2 h at room temperature, which meant it was ready for use. The assay buffer (pH 7.4) was 100 mM Tris-HCl, 20 mM KCl, 6 mM MgCl2.
The test compounds were dissolved in 100% (v/v) DMSO to give a stock concentration of 10 mM. This solution was diluted to six appropriate concentrations with test compounds in the assay buffer. 5 μL of each compound solution was added to each well of the Perkin-Elmer 96-well assay plate. The first two rows of the 96-well plate contained DMSO only, representing the control and background values, respectively. […] The absorbance at 620 nm was measured using the SpectraMAX 340PC microplate reader (Molecular Devices, Palo Alto, Calif.). […]

pKd: −log10 of the molar value. Entries after “also recorded” stand apart in the source; their conditions may differ.

Usually pKd stands for −log10 of the Kd, conventionally taken in molar units. For Ethoxyquin [EQ], the pKd at recombinant hsp90 is 6.55. In test [1], the “effect on paclitaxel's reduction of cell viability (relative ATP levels)” value is “did not affect the ability of paclitaxel to reduce cell viability; also recorded: no significant change in reduced cell viability was observed”. In addition, in the test on AJ mice treated with PTX (tail sensory nerves), the “sensory nerve action potential (SNAP) amplitude” value is on record as “prevented this reduction in SNAP amplitude”. In addition, in the test on AJ mice treated with PTX, the “distal axonal degeneration and intraepidermal nerve fiber density in the footpads” value is given as “loss of distal axons was prevented”; the “thermal hypoalgesia induced by PTX” value is listed as “prevented”. The “neuroprotection against paclitaxel with hsp90 siRNA” value in the test with hsp90 [2] (PTX+100 nM EQ (+) siRNA, hsp90 downregulated) is reported as “the neuroprotection by EQ disappeared; also recorded: reverses neuroprotection by EQ”. Besides, the “neuroprotection against paclitaxel without hsp90 siRNA” value in the test with hsp90 [2] (PTX+100 nM EQ (−) siRNA) is on record as “Neuroprotection by EQ can be seen”. Also, the “effect on binding of paclitaxel to hsp90” value with hsp90 [3] is “did not affect the binding of paclitaxel to hsp90; also recorded: does not alter the binding efficacy of paclitaxel to hsp90”. In addition, in test [4], the distal axonal degeneration entry was “prevents distal axonal degeneration”. Further, the distal axonal degeneration result with diabetic rats (75 μg/kg/day) is reported as “reverses distal axonal degeneration”. Further, the “erectile dysfunction induced by diabetes (autonomic testing)” value in the test on diabetic rats is listed as “prevents erectile dysfunction induced by diabetes”. The “distal axonal degeneration induced by PTX (axon lengths)” value in the test with primary DRG neurons was “partially prevented distal axonal degeneration induced by PTX”. The “effect on ATPase activity of hsp90” value in the test with hsp90 [5] is given as “does not affect the ATPase activity of hsp90; also recorded: does not alter the ATPase activity of hsp90”.
